“Also recorded” adds a separate entry of the source.
Legend:
[1] = tested on: protein kinase B; assay: protein kinase B phosphorylation in isolated rat adipocytes; type: cell-based; conditions: 25 μM
Protocol: Isolated fat cells were disrupted for total membrane preparation by hypo-osmotic lysis in a 20 mM HES buffer and an antiprotease and antiphosphatase cocktail as reported by Abella et al. (2003, Diabetes 52: 1004-1013). Protein concentrations were determined by the Bradford method (Bradford, 1976, Anal. Biochem. 72: 248-254) with gamma-globulin as protein concentration standard. Immunoprecipitation and immunoblot assays were performed as previously described by Abella et al. (2004, Id.) with the use of a monoclonal antiphosphotyrosine antibody for the immunoprecipitation and an anti-insulin receptor antibody for immunobloting, respectively. SDS-polyacrylamide gel electrophoresis was performed on membrane proteins following conventional procedures. Proteins were transferred to Immobilon and immunoblotting was performed as reported by Castello et al. (1994, J. Biol. Chem. 269: 5905-5912).
The mechanism of action of B6V10 was investigated in isolated rat adipocytes. Adipose cells from Wistar rats were incubated for different times in the presence of 25 μM hexaquis(benzylammonium) decavanadate (B6V10). Cells were also incubated in the presence of insulin (100 nM, 45 min), decavanadate (25 μM, 45 min) or semicarbazide (1 mM, 45 min). Subsequently, 2-deoxyglucose uptake (results shown in FIG. 7A), tyrosine phosphorylation of insulin receptor (FIG. 7B), phospho-Thr^308-protein kinase B (FIG. 7C) and phospho-Ser^473-protein kinase B (FIG. 7D) was measured. […] The phosphorylation of protein kinase B induced by B6V10 was parallel to activation of glucose transport (FIGS. 7C and 7D).
(§1) The effects of incubation with semicarbazide or phosphatidylinositol 3-kinase inhibitors were also investigated. Adipose cells were incubated with B6V10 (25 μM, 45 min) in the absence or presence of wortmannin (2 μM, 45 min), LY294002 (10 μM, 45 min) or semicarbazide (1 mM, 45 min) and thereafter 2-deoxyglucose uptake was determined during 5 min. Activation of protein kinase B phosphorylation induced by B6V10 was blocked by semicarbazide and it was not observed by decavanadate. In addition, phosphatidylinositol 3-kinase inhibitors wortmannin and LY294002 blocked B6V10-induced glucose transport (FIG. 7E).

[2] = tested on: adipocyte lipolysis; assay: adipocyte lipolysis; type: cell-based
[3] = tested on: diabetic rats; assay: plasma lipids of diabetic rats; type: in vivo, rat
Protocol: Plasma triglycerides (Biosystems, Barcelona, Spain) and NEFAS (Wako Chemicals, Neuss, Germany) were determined with standard calorimetric methods.
The concentration of circulating lipids under these conditions was also assayed. […] Untreated diabetic (solid bars, FIG. 9B) or nondiabetic rats (open bars, FIG. 9B) were similarly assayed as controls.

[4] = tested on: isolated rat adipocytes; assay: glucose transport (2-deoxyglucose uptake) in isolated rat adipocytes; type: cell-based; conditions: for stimulatory effect on glucose transport in the presence of semicarbazide: 1 mM semicarbazide (SSAO inhibitor); for stimulation of glucose transport: 45 min incubation
Protocol: In order to determine whether salts formed by vanadate and benzylamine could produce an insulin mimetic effect, the effect of increasing concentrations of hexaquis(benzylammonium) decavanadate on glucose transport activity in isolated rat adipocytes was tested. Hexaquis(benzylammonium) decavanadate induced the stimulation of glucose transport which was perceptible from concentrations of 0.5 μM, with a maximal effect observed 2.5 μM and the semimaximal effect above 1 μM. […] The maximum effect provoked by incubation with hexaquis(benzylammonium) decavanadate was greater than that produced by the presence of benzylamine and vanadate in combination (FIG. 1). […] In similar assays, the activity of hexaquis(benzylammonium) decavanadate, pentaquis(benzylammonium) decavanadate and tetraquis(benzylammonium) decavanadate on glucose transport activity in isolated rat adipocytes were analyzed.
To determine the possible insulin mimetic effect of certain vanadium arylalkylamines, the capacity of these compounds to enhance glucose transport in isolated rat adipocytes was tested. Adipose cells from Wistar rats were incubated for 45 minutes in basal conditions (Basal) or in the presence of 100 nM insulin (Ins), and different concentrations of. hexaquis(benzylammonium) decavanadate (B6V10) in the absence or in the presence of 1 mM semicarbazide (SCZ). Subsequently, 2-DG transport was measured over a 5 min. interval.
The effects of the three tested compounds (B6V10, B5V10 and B4V10) were compared. Adipose cells from Wistar rats were incubated for 45 minutes in basal conditions (Basal) or in the presence of 100 nM insulin (Ins), and different concentrations of. decavanadate (V10), hexaquis(benzylammonium) decavanadate (B6V10), pentaquis(benzylammonium) decavanadate (B5V10) or tetraquis(benzylammonium) decavanadate (B4V10) in the absence or in the presence of 1 mM semicarbazide (SCZ). 2-DG transport was measured over 5 min. intervals. […] The stimulation of all three compounds on glucose transport was blocked in the presence of semicarbazide.
In additional experiments, compounds shown in FIG. 6A (named 2-(4-fluoro-phenyl)-ethylamine (compound A), 3-phenyl-propylamine (compound B), 4-fluoro-benzylamine (compound C) and 4-phenyl-butylamine (compound D)) were assessed using the experimental methods set forth above for the capacity to stimulate 2-DG uptake in isolated rat adipocytes. Adipose cells from Wistar rats were incubated for 45 minutes in basal conditions (Basal) or in the presence of 100 nM insulin (Ins), and different concentrations of vanadium salts of 2-(4-fluoro-phenyl)-ethylamine (compound A), 3-phenyl-propylamine (compound B), 4-fluoro-benzylamine (compound C) and 4-phenyl-butylamine (compound D). 2-DG transport was measured over 5 min.
as §1

[5] = tested on: streptozotocin-induced diabetic rats; assay: chronic oral treatment, glycemia of streptozotocin (45 mg/kg) diabetic rats; type: in vivo, rat
Protocol: The effect of the oral administration of hexaquis(benzylammonium) decavanadate on glycemia from diabetic rats was also studied. Diabetes was induced in rats by intravenous administration of streptozotocin, and subsequently, a hexaquis(benzylammonium) decavanadate or sodium decavanadate unique dose was administered to the rats. […] After seven days of treatment, the dose was increased at 10 μmol/kg/day which was maintained for an additional ten days. […] Thus, glycemia in sodium decavanadate treated rats was approximately 450 mg/dl and glycemia of hexaquis(benzylammonium) decavanadate treated rats was approximately 250 mg/dl.
Chronic in vivo efficacy of B6V10 was evaluated in streptozotocin-induced diabetic rats and in db/db mice. Streptozotocin-induced (45 mg/kg) diabetic rats were subcutaneously treated with hexaquis(benzylammonium) decavanadate (2.5 μmol/kg) (B6V10, solid squares, FIG. 8A) or with decavanadate (2.5 μmol/kg) (V10, open circles, FIG. 8A) delivered subcutaneously by osmotic minipumps implanted in the dorsal region. Diabetic rats were also sham-operated (untreated, solid diamonds, FIG. 8A). […] These experiments were repeated using an oral administration protocol. Streptozotocin-induced (45 mg/kg) diabetic rats were orally treated with hexaquis(benzylammonium) decavanadate (5 μmol/kg from day 0 to day 7 and 10 μmol/kg/day from day 7 to day 17) (B6V10, solid squares, FIG. 8B) or received decavanadate (10 μmol/kg) (V10, open circles, FIG. 8B). Nondiabetic rats were also untreated (solid triangles, FIG. 8B).

Substance: hexaquis(benzylammonium) decavanadate [Example B6V10]
- protein kinase B phosphorylation [1]: rapidly stimulated
- time after addition at which protein kinase B phosphorylation was detectable [1]: 2.5 min
- protein kinase B phosphorylation in the presence of semicarbazide ([1]; semicarbazide 1 mM, 45 min): blocked
- adipocyte lipolysis [2]: inhibited
- plasma concentration of cholesterol [3]: normalized
- plasma concentration of free fatty acids [3]: normalized
- plasma concentration of triglycerides [3]: normalized
- stimulation of glucose transport compared with combination of 100 μM benzylamine and 100 μM vanadate ([4]; 25 μM B6V10, data not shown): greater stimulation
- stimulatory effect on glucose transport in the presence of semicarbazide [4]: completely blocked
- stimulatory effect on glucose transport in the presence of semicarbazide ([4]; listed as hexaquis(benzylammonium) decavanadate): completely blocked; also recorded: inhibited
- maximum effect on glucose transport compared with benzylamine and vanadate in combination ([4]; combination 100 μM sodium vanadate and 100 μM benzylamine (FIG. 1)): greater
- maximal effect on glucose transport relative to the maximal stimulation caused by insulin ([4]; insulin 100 nM): 85%
- concentration at which maximal effect on glucose transport was observed ([4]; isolated rat adipocytes): 2.5 µM
- concentration from which stimulation of glucose transport was perceptible ([4]; isolated rat adipocytes): 0.5 µM
- stimulation of glucose transport ([4]; isolated rat adipocytes): stimulated glucose transport in rat adipocytes in a concentration-dependent manner
- stimulation of glucose transport ([4]; isolated rat adipocytes, listed as hexaquis(benzylammonium) decavanadate): pronounced stimulation
- EC50 ([4]; isolated rat adipocytes, read-out: semimaximal effect on glucose transport): > 1000 nM
- effect on glycemia ([5]; daily oral administration, 17 days): significant correction of hyperglycemia; also recorded: significant lowering in blood glucose levels; also recorded: ameliorated hyperglycemia
- time of treatment after which decrease of hyperglycemia was detected ([5]; oral 5 μmol/kg/day): two
- effect on hyperglycemia ([5]; oral 5 μmol/kg/day for seven days): moderate decrease of hyperglycemia
- effect of dosage increase on glycemia ([5]; oral 10 μmol/kg/day from day 7 for additional ten days): additional decrease in glycemia
- glycemia ([5]; oral, after dosage increase to 10 μmol/kg/day): approximately 250 mg/dl
